What was measured:
[1] = in vitro; details: monkey
Description: Selectivity index, ratio of IC50 for cytotoxicity against African green monkey Vero cells to IC50 for leishmanicidal activity against Leishmania donovani 9515 amastigote infected in human THP-1 cells

[2] = Selectivity index, ratio of IC50 for antileishmanial activity against Leishmania major IR-173 promastigotes to IC50 for leishmanicidal activity against Leishmania major IR-173 amastigote infected in human THP-1 cells; format: functional
[3] = test system: Leishmania major; assay: Antileishmanial activity against Leishmania major IR-173 amastigote infected in human THP-1 cells assessed as static activity by measuring inhibition of parasite growth incubated for 72 hrs by resazurin dye based assay; format: functional, organism-based; details: IR-173, THP-1, 72 h
[4] = test system: Leishmania donovani; assay: Antileishmanial activity against Leishmania donovani 9515 amastigote infected in human THP-1 cells assessed as static activity by measuring inhibition of parasite growth incubated for 72 hrs by resazurin dye based assay; format: functional, organism-based; details: Leishmania donovani, 9515, THP-1, 72 h
[5] = in vitro; details: monkey, Vero cells
Description: Selectivity index, ratio of IC50 for cytotoxicity against African green monkey Vero cells to IC50 for antileishmanial activity against Leishmania donovani 9515 promastigotes

[6] = in vitro; details: monkey, Vero cells; remark: listed apart in the source
Description: Selectivity index, ratio of IC50 for cytotoxicity against African green monkey Vero cells to IC50 for antileishmanial activity against Leishmania major IR-173 amastigote infected in human THP-1 cells assessed as static activity

[7] = in vitro; details: African green monkey
[8] = in vitro; details: human
[9] = Selectivity index, ratio of IC50 for antileishmanial activity against Leishmania donovani 9515 promastigotes to IC50 for antileishmanial activity against Leishmania donovani 9515 amastigote infected in human THP-1 cells assessed as static activity; format: functional
[10] = Selectivity index, ratio of IC50 for antileishmanial activity against Leishmania major IR-173 promastigotes to IC50 for antileishmanial activity against Leishmania major IR-173 amastigote infected in human THP-1 cells assessed as static activity; format: functional
[11] = Selectivity index, ratio of IC50 for antileishmanial activity against Leishmania donovani 9515 promastigotes to IC50 for leishmanicidal activity against Leishmania donovani 9515 amastigote infected in human THP-1 cells; format: functional
[12] = in vitro; details: monkey, Vero cells; remark: listed apart in the source
Description: Selectivity index, ratio of IC50 for cytotoxicity against African green monkey Vero cells to IC50 for antileishmanial activity against Leishmania major IR-173 promastigote

[13] = test system: Leishmania major; assay: Leishmanicidal activity against Leishmania major IR-173 amastigote infected in human THP-1 cells incubated for 72 hrs by resazurin dye based analysis; format: functional, organism-based; details: IR-173, THP-1, 72 h
[14] = test system: Leishmania donovani; assay: Leishmanicidal activity against Leishmania donovani 9515 amastigote infected in human THP-1 cells incubated for 72 hrs by resazurin dye based analysis; format: functional, organism-based; details: Leishmania donovani, 9515, THP-1, 72 h
[15] = test system: Leishmania major; assay: Antileishmanial activity against Leishmania major IR-173 promastigotes assessed as inhibition of parasite growth incubated for 48 hrs by resazurin dye based assay; format: functional, organism-based; details: IR-173, 48 h
[16] = Selectivity index, ratio of IC50 for cytotoxicity against African green monkey Vero cells to IC50 for leishmanicidal activity against Leishmania major […] amastigote infected in human THP-1 cells; format: toxicity, cell-based; details: read-out: Ratio IC50
[17] = test system: Leishmania donovani; assay: Antileishmanial activity against Leishmania donovani 9515 promastigotes assessed as inhibition of parasite growth incubated for 48 hrs by resazurin dye based assay; format: functional, organism-based; details: Leishmania donovani, 9515, 48 h
[18] = Cytotoxicity against HEK293 cells assessed as inhibition of cell growth incubated for 48 hrs by resazurin dye based assay; format: toxicity; details: human
[19] = Selectivity index, ratio of IC50 for cytotoxicity against HEK293 cells to IC50 for antileishmanial activity against Leishmania major IR-173 promastigotes; format: toxicity, cell-based; details: human, read-out: Ratio IC50
[20] = Selectivity index, ratio of IC50 for cytotoxicity against African green monkey Vero cells to IC50 for antileishmanial activity against Leishmania donovani 9515 amastigote infected in human THP-1 cells assessed as static activity; format: toxicity, cell-based; details: read-out: Ratio IC50

Row | Structure (SMILES) | selectivity ratio ([1]; Vero cells) | Ratio IC50 [2] | IC50 [3] [µM] | IC50 [4] [µM] | selectivity ratio [6] | IC50 at 48 h ([7]; Vero cells) [µM] | IC50 at 48 h ([8]; THP-1 cells) [µM] | Ratio IC50 [10] | selectivity ratio [12] | IC50 [13] [µM] | IC50 [14] [µM] | IC50 [15] [µM] | selectivity ratio [16] | IC50 [17] [µM] | IC50 at 48 h [18] [µM] | selectivity ratio [19] | other results
1 | NC(=O)N/N=C/c1ccc([N+](=O)[O-])o1 [NITROFURAZONE] | 37 | 0.1 | 2.8 | 4.11 | 36 | > 100 | > 100 | 0.12 | 54 | 5.6 | 2.7 |  |  |  |  |  | selectivity ratio [5]: 54; Ratio IC50 [9]: 0.2; Ratio IC50 [11]: 0.3
2 | CCCCCc1cn(CCCCCN2C(=O)CN(/N=C/c3ccc([N+](=O)[O-])o3)C2=O)nn1 |  | 0.2 | > 10 | > 10 |  | 72.8 | 70 |  |  | 6.56 | > 10 | 1.07 | 11 | > 10 | 12 | 11 | 
3 | O=C1CN(/N=C/c2ccc([N+](=O)[O-])o2)C(=O)N1 [NITROFURANTOIN] |  |  | > 10 | > 10 |  |  |  |  |  | > 10 | 3.57 | > 10 |  | > 10 |  |  | selectivity ratio [1]: 28; IC50 at 48 h ([7]; vero): > 100 µM; IC50 at 48 h ([8]; thp-1): > 100 µM
4 | O=Cc1ccc([N+](=O)[O-])o1 | 9 | 1.3 | 8.35 | 8.56 | 3 | 23.2 |  | 0.87 | 3 | 5.6 | 2.68 | 7.28 | 4 | > 10 |  |  | 
5 | CCCCc1cn(CCCN2C(=O)CN(/N=C/c3ccc([N+](=O)[O-])o3)C2=O)nn1 |  |  | 3.34 | 1.01 | 30 | > 100 | 52.5 | 0.2 |  | > 10 | > 10 | 0.45 |  | > 10 | 43.9 | 98 | selectivity ratio [20]: 99
6 | CCCCc1cn(CCCCCN2C(=O)CN(/N=C/c3ccc([N+](=O)[O-])o3)C2=O)nn1 | 19 | 0.1 | > 10 | > 10 |  | 31.6 | > 100 |  |  | 5.69 | 1.68 | 0.44 | 6 | > 10 | > 100 | > 227 | 
7 | O=C1OCCN1/N=C/c1ccc([N+](=O)[O-])o1 [FURAZOLIDONE] | 60 |  | 5.75 | 4.94 | 17 |  | > 100 | 0.1 | 270 | > 10 | 1.68 |  |  |  |  |  | selectivity ratio [5]: 357; IC50 at 48 h ([7]; vero): > 100 µM; Ratio IC50 [9]: 0.1; Ratio IC50 [11]: 0.2
8 | COc1ccc(-c2cn(CCCN3C(=O)CN(/N=C/c4ccc([N+](=O)[O-])o4)C3=O)nn2)cc1 |  | 0.1 | > 10 | > 10 |  | > 100 | > 100 |  |  | 9.75 | > 10 | 0.8 | > 10 | > 10 | 10.8 | 13 | 

Source: ChEMBL document CHEMBL5352474, “Synthesis and in vitro antileishmanial activity of alkylene-linked nitrofurantoin-triazole hybrids” (Eur J Med Chem, 2023)
